Measured values as given in patent publication US10519211B2, “Compounds as peptidic GLP1/glucagon/GIP receptor agonists” (SANOFI, priority 2016, dated 2019).
Numbered stars: 1 amine (or outer) side, 2 acyl side, 3 side chain; on linkers, the order of the positions; unused ones are H or OH. Square brackets hold non-standard residues; d marks the D form. Side chains are listed from the residue outwards. Peptide text beside a SMILES is read from it. * marks the point of attachment. Adipoyl(4R-palmitoylamino) = CCCCCCCCCCCCCCCC(=O)N[C@H](CCC(=O)*)CC(=O)O; γGlu = O=C(O)[C@H](CCC(=O)[*:2])N[*:1]; Palmitoyl = CCCCCCCCCCCCCCCC(=O)*; AEEA = NCCOCCOCC(=O)O; Aib = CC(C)(N)C(=O)O

Columns and labels:
[1] = target: T1, human GIP receptor (hGIP-R) (Homo sapiens, UniProt P48546); assay: cAMP response (HTRF) of HEK-293 cells stably expressing human GIP receptor; format: cell-based; settings: Table 8; cAMP formation
T1 construct: expressed in transfected cells; host or cells: HEK-293
T1 sequence (P48546 22-466): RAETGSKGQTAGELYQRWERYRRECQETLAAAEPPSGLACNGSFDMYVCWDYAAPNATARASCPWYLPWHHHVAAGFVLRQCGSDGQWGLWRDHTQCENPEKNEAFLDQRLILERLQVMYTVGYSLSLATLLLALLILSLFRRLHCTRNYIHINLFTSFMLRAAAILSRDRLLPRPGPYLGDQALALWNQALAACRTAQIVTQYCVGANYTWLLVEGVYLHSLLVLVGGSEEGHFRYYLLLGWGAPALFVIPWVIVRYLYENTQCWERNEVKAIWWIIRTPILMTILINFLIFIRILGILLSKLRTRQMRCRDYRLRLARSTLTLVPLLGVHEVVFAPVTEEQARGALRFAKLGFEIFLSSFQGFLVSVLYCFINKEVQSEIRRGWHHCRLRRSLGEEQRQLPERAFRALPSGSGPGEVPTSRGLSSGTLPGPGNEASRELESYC
Procedure: cAMP content of cells was determined using a kit from Cisbio Corp. (cat. no. 62AM4PEJ) based on HTRF (Homogenous Time Resolved Fluorescence). For preparation, cells were split into T175 culture flasks and grown overnight to near confluency in medium (DMEM/10% FBS). Medium was then removed and cells washed with PBS lacking calcium and magnesium, followed by proteinase treatment with accutase (Sigma-Aldrich cat. no. A6964). Detached cells were washed and resuspended in assay buffer (1×HBSS; 20 mM HEPES, 0.1% BSA, 2 mM IBMX) and cellular density determined. They were then diluted to 400000 cells/ml and 25 μl-aliquots dispensed into the wells of 96-well plates. For measurement, 25 μl of test compound in assay buffer was added to the wells, followed by incubation for 30 minutes at room temperature.
Potencies of peptidic compounds at the GLP-1, glucagon and GIP receptors were determined by exposing cells expressing human glucagon receptor (hGlucagon R), human GIP receptor (hGIP-R) or human GLP-1 receptor (hGLP-1 R) to the listed compounds at increasing concentrations and measuring the formed cAMP as described in Methods.

[2] = Thioflavin T (ThT) assay for physical stability (fibrillation); format: physicochemical; settings: 3 mg/ml, 100 mM acetate pH 4.5 with m-cresol, shaking at 37° C.
Procedure: Investigations were carried out to determine fibrillation tendencies under stress conditions by shaking at 37° C. within Fluoroskan Ascent FL.
For the tests in Fluoroskan Ascent FL, 200 μL sample were placed into a 96 well mictrotiter plate PS, flat bottom, Greiner Fluotrac No. 655076. Plates were sealed with Scotch Tape (Quiagen). Samples were stressed by continuous cycles of 10 s shaking at 960 rpm and 50 s rest period at 37° C. The kinetic was monitored by measuring fluorescence intensity every 20 minutes.
Peptides were diluted in a buffer system to a final concentration of 3 mg/ml. 20 μL of a 10.1 mM ThT solution in H2O were added to 2 mL of peptide solution to receive a final concentration of 100 μM ThT. For each sample eight replicates were tested.
Tht buffer system A) 100 mM Acetate pH 4.5 including m-cresol (100 mM Natriumacetat trihydrat, pH adjustment using 2N CH3COOH, 2.7 mg/mL m-cresol) Tht buffer system B) 100 mM citrate buffer pH 6.0
Lag time in hours in Thioflavin T (ThT) assay of peptide samples was determined in Tht buffer system A as described in Methods.

[3] = Chemical stability assessment (UPLC-UV, relative purity loss); format: physicochemical; settings: 1 mg/ml, 25 mM acetate buffer pH 4.5 with m-cresol (buffer system A)
Procedure: Prior to the chemical stability measurement of a peptide batch, its purity was determined through UPLC/MS. For stability testing the target concentration was 1 mg pure compound/ml. Therefore solutions from solid samples were prepared in a buffer system with a concentration of 1 mg/mL compound based on the previously determined % purity:
Chemical stability buffer system A) 25 mM acetate buffer pH4.5, 3 mg/mL L-Methionine, 2.7 mg/mL m-cresol, 18 mg/mL Glycerol 85%
Peptide solutions were filtered through […] pore size and filled into aliquots under aseptic conditions. At starting point UPLC-UV was performed by injection of 2 μl of the undiluted sample.
For chemical stability testing, aliquots were stored for 28 days at Sand 40° C. After this time course the samples were centrifuged for 15 min at 2500 RCF. Then 2 μl of the undiluted supernatant were analysed with UPLC-UV.
The chemical stability was rated through the relative loss of purity calculated by the equation: [(purity at starting point)−(purity after 28 days at X° C.)]/(purity at starting point)]*100%
The purity is calculated as [(peak area peptide)/(total peak area)]*100%
Peptide samples were prepared in Chemical stability buffer system A and chemical stability was assessed as described in Methods.

[4] = Solubility assessment (UPLC-UV); format: physicochemical; settings: acetate buffer pH 4.5, 2.7 mg/ml m-cresol (buffer system A), target 10 mg/ml
Procedure: Prior to the solubility measurement of a peptide batch, its purity was determined through UPLC/MS.
Therefore solutions from solid samples were prepared in a buffer systems with a concentration of 10 mg/mL compound based on the previously determined % purity:
Solubility buffer system A) Acetate Buffer pH 4.5, 100 mM sodium acetate trihydrate, 2.7 mg/ml m-Cresol
UPLC-UV was performed after 1 hour of gentle agitation from the supernatant, which was obtained after 15 min of centrifugation at 2500 RCF (relative centrifugal acceleration).
The solubility was determined by the comparison of the UV peak area of 2 μL-injection of a buffered sample diluted 1:10 with a standard curve of a reference peptide with known concentration. The different UV extinction coefficients of sample and reference peptide were calculated based on the different amino acid sequences and considered in the concentration calculation.
Peptide samples were prepared in solubility buffer system A and solubility was assessed as described in Methods.

[5] = Dynamic light scattering (DLS), hydrodynamic radius as surrogate for interaction parameter kD; format: physicochemical
Procedure: For every peptide solution, the hydrodynamic radius Rh and the diffusion constant D (related via the Stokes-Einstein equation) were determined as an average over triplicates. Both parameters were determined at different concentrations (e.g., Rh1 and D1: 1 mg/ml and Rh5 and D5: 5 mg/ml) in the same buffer system. The difference of these parameters between low and high peptide concentration is a surrogate for the DLS interaction parameter kD. Rh5<Rh1 or D5>D1 correspond to kD>0 and therefore to repulsive inter-particle interactions that result in improved physical (or colloidal) stability.
DLS buffer system A) 25 mM acetate buffer pH4.5, 3 mg/mL L-Methionine, 2.7 mg/mL m-cresol, 18 mg/mL Glycerol 85%
DLS Method C: DLS measurements were performed on a DynaPro Plate Reader II (Wyatt Technology, Santa Barbara, Calif., US) and using one of the following black, low volume, and non-treated plates: polystyrene 384 assay plate with clear bottom (Corning, N.Y., US), polystyrene 96 assay plate with clear bottom (Corning, N.Y., US), cyclo olefin polymer (COP) 384 assay plate with clear bottom (Aurora, Mont., US), or polystyrene 384 assay plate with clear bottom (Greiner Bio-One, Germany). The data were processed with the Dynamics software provided by Wyatt Technology. Parameters of the particle size distribution were determined with non-negatively constrained least squares (NNLS) methods using DynaLS algorithms. Measurements were taken at 25° C. with an 830 nm laser light source at an angle of 158°.
The hydrodynamic radius radius Rh of peptide samples was determined at different peptide concentrations (1 mg/ml and 5 mg/ml) in DLS buffer system A using DLS method C as described in Methods as surrogate for the DLS interaction parameter kD.

Compound	EC50 [1]	Lag time before increase [2]	Chemical stability [relative purity loss 28 days 40° C.] (%) at pH 4.5 [3]	solubility at 1 h [4]	Delta Rh [nm] = Rh5 − Rh1 ([5]; DLS buffer system A pH 4.5)	Rh1 [nm] c= 1 mg/ml ([5]; hydrodynamic radius, 1 mg/ml, DLS buffer system A pH 4.5, DLS method C, 25° C.)	Rh5 [nm] c = 5 mg/ml ([5]; hydrodynamic radius, 5 mg/ml, DLS buffer system A pH 4.5, DLS method C, 25° C.)
CCCCCCCCCCCCCCCC(=O)NCCOCCOCC(=O)N[C@@H](CCC(=O)N[C@@H](CCC(=O)NCCCC[C@H](NC(=O)[C@H](CC(C)C)NC(=O)[C@H](CCCCN)NC(=O)[C@H](CO)NC(=O)[C@H](CC(C)C)NC(=O)[C@H](CC(=O)O)NC(=O)[C@H](CO)NC(=O)[C@@H](NC(=O)[C@H](Cc1ccccc1)NC(=O)[C@@H](NC(=O)CNC(=O)[C@H](CCC(N)=O)NC(=O)C(C)(C)NC(=O)[C@@H](N)Cc1c[nH]cn1)[C@@H](C)O)[C@@H](C)O)C(=O)N[C@@H](CCC(=O)O)C(=O)N[C@@H](CCC(=O)O)C(=O)N[C@@H](CCC(N)=O)C(=O)N[C@@H](CCCNC(=N)N)C(=O)N[C@@H](CCC(N)=O)C(=O)NC(C)(C)C(=O)N[C@@H](CCC(=O)O)C(=O)N[C@@H](Cc1ccccc1)C(=O)N[C@H](C(=O)N[C@@H](CCC(=O)O)C(=O)N[C@@H](Cc1c[nH]c2ccccc12)C(=O)N[C@@H](CC(C)C)C(=O)N[C@@H](CCCCN)C(=O)N[C@@H](C)C(=O)NCC(=O)NCC(=O)N[C@@H](Cc1c[nH]cn1)C(=O)N1CCC[C@H]1C(=O)N[C@@H](CO)C(=O)NC(C)(C)C(=O)N[C@@H](CCCCN)C(=O)N1CCC[C@H]1C(=O)N1CCC[C@H]1C(=O)N1CCC[C@H]1C(=O)N[C@@H](CCCCN)C(N)=O)[C@@H](C)CC)C(=O)O)C(=O)O [SEQ ID NO: 18, H-Aib-Q-G-T-F-T-S-D-L-S-K-L-K[gGlu-gGlu-AEEA-Palm]-E-E-Q-R-Q-Aib-E-F-I-E-W-L-K-A-G-G-H-P-S-Aib-K-P-P-P-K-NH2] (H-H[Aib]QGTFTSDLSKLK([γGlu-γGlu-AEEA-Palmitoyl])EEQRQ[Aib]EFIEWLKAGGHPS[Aib]KPPPK-NH2)	5.6 pM	>45 h					
CCCCCCCCCCCCCCCC(=O)N[C@H](CCC(=O)NCCOCCOCC(=O)N[C@@H](CCC(=O)NCCCC[C@H](NC(=O)[C@H](CC(C)C)NC(=O)[C@H](CCCCN)NC(=O)[C@H](CO)NC(=O)[C@H](CC(C)C)NC(=O)[C@H](CC(=O)O)NC(=O)[C@H](CO)NC(=O)[C@@H](NC(=O)[C@H](Cc1ccccc1)NC(=O)[C@@H](NC(=O)CNC(=O)[C@H](CCC(N)=O)NC(=O)C(C)(C)NC(=O)[C@@H](N)Cc1c[nH]cn1)[C@@H](C)O)[C@@H](C)O)C(=O)N[C@@H](CCC(=O)O)C(=O)N[C@@H](CCC(=O)O)C(=O)N[C@@H](CCC(N)=O)C(=O)N[C@@H](CCCNC(=N)N)C(=O)N[C@@H](CCC(N)=O)C(=O)NC(C)(C)C(=O)N[C@@H](CCC(=O)O)C(=O)N[C@@H](Cc1ccccc1)C(=O)N[C@H](C(=O)N[C@@H](CCC(=O)O)C(=O)N[C@@H](Cc1c[nH]c2ccccc12)C(=O)N[C@@H](CC(C)C)C(=O)N[C@@H](CCCCN)C(=O)N[C@@H](C)C(=O)N[C@H](C)C(=O)NCC(=O)N[C@@H](Cc1c[nH]cn1)C(=O)N1CCC[C@H]1C(=O)N[C@@H](CO)C(=O)NC(C)(C)C(=O)N[C@@H](CCCCN)C(=O)N1CCC[C@H]1C(=O)N1CCC[C@H]1C(=O)N1CCC[C@H]1C(=O)N[C@@H](CCCCN)C(N)=O)[C@@H](C)CC)C(=O)O)CC(=O)O [SEQ ID NO: 23, H-Aib-Q-G-T-F-T-S-D-L-S-K-L-K[gGlu-AEEA-gAAA-Palm]-E-E-Q-R-Q-Aib-E-F-I-E-W-L-K-A-dAla-G-H-P-S-Aib-K-P-P-P-K-NH2] (H-H[Aib]QGTFTSDLSKLK([γGlu-AEEA-Adipoyl(4R-palmitoylamino)])EEQRQ[Aib]EFIEWLKA[dA]GHPS[Aib]KPPPK-NH2)		>45 h	9.6%	> 10.4 mg/mL	−0.1 nm	2.8 nm	2.7 nm
